Data taken from patent US20190105367A1, “ANTIMICROBIAL 4-OXOQUINOLIZINES” (Emergent Product Development Gaithersburg Inc., priority 2011, published 2019).
In brackets after ≈: the same amount, converted by molar mass. Like-named read-outs stand apart in the source and are kept apart here.

Assays:
A. baumannii A472 [1] = experiment: Preliminary MBC without and with sub-inhibitory polymyxin B (Example 4); type: cell-based, Acinetobacter baumannii; details: Acinetobacter baumannii, preliminary MBC
A. baumannii A387 [2] = experiment: MIC without and with sub-inhibitory polymyxin B (Example 4); type: cell-based, Acinetobacter baumannii; details: for MIC without PB/MIC + PB: A. baumannii A387; for MIC: Acinetobacter baumannii
A. baumannii J2 = experiment: as above; type: cell-based, Acinetobacter baumannii; details: for MIC without PB/MIC + PB: A. baumannii J2; for MIC: Acinetobacter baumannii
A. baumannii A390 [3] = experiment: as above; type: cell-based, Acinetobacter baumannii; details: +0.06 μg/ml PB, 2nd experiment
A. baumannii A401 [4] = experiment: Preliminary MBC without and with sub-inhibitory polymyxin B (Example 4); type: cell-based, Acinetobacter baumannii; details: Acinetobacter baumannii
[5] = system: strains of A. baumannii and one strain of Acinetobacter sp.; experiment: MIC with sub-inhibitory concentrations (0.25x MIC) of polymyxin B, panel of Acinetobacter strains (Example 4); type: cell-based
A. baumannii ATCC 19606 = experiment: MIC without and with sub-inhibitory polymyxin B (Example 4); type: cell-based, Acinetobacter baumannii; details: A. baumannii ATCC 19606
A. baumannii NCTC 13301 [6] = experiment: as above; type: cell-based, Acinetobacter baumannii
A. baumannii A489 = experiment: Preliminary MBC without and with sub-inhibitory polymyxin B (Example 4); type: cell-based, Acinetobacter baumannii; details: Acinetobacter baumannii, preliminary MBC
A. baumannii NCTC 13301 [7] = experiment: MIC without and with sub-inhibitory polymyxin B (Example 4); type: cell-based, Acinetobacter baumannii; details: +[…] PB, 2nd experiment
A. baumannii A14 [8] = experiment: as above; type: cell-based, Acinetobacter baumannii; details: 1st experiment
A. baumannii A329 [9] = experiment: Preliminary MBC without and with sub-inhibitory polymyxin B (Example 4); type: cell-based, Acinetobacter baumannii; details: Acinetobacter baumannii, A329, A. baumannii A329, +0.06 μg/ml PB, 2nd experiment, read-out: MBC
A. baumannii A390 [10] = experiment: as above; type: cell-based, Acinetobacter baumannii; details: Acinetobacter baumannii, A390, A. baumannii A390, +0.06 μg/ml PB, 2nd experiment, read-out: MBC
How it was run: (§1)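 Incubation 18-20 h, 37° C. MBC = lowest conc. with ~90% fewer colonies than positive control (single/no colonies).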

A. baumannii A473 [11] = experiment: as above; type: cell-based, Acinetobacter baumannii; details: Acinetobacter baumannii, A473, A. baumannii A473, +0.06 μg/ml PB, 2nd experiment, read-out: MBC
How it was run: as §1

A. baumannii NCTC 13301 [12] = experiment: as above; type: cell-based, Acinetobacter baumannii; details: Acinetobacter baumannii
How it was run: as §1

A. baumannii A14 [13] = experiment: as above; type: cell-based, Acinetobacter baumannii; details: A. baumannii A14, +0.06 μg/ml PB, 2nd experiment
How it was run: as §1

A. baumannii A387 [14] = experiment: as above; type: cell-based, Acinetobacter baumannii; details: Acinetobacter baumannii
A. baumannii A14 [15] = experiment: MIC without and with sub-inhibitory polymyxin B (Example 4); type: cell-based, Acinetobacter baumannii; details: 2nd experiment
[16] = system: Acinetobacter sp. (H064200250); experiment: as above; type: cell-based; details: for MIC: Acinetobacter
A. baumannii A401 [17] = experiment: as above; type: cell-based, Acinetobacter baumannii; details: for MIC: Acinetobacter baumannii
A. baumannii A329 [18] = experiment: as above; type: cell-based, Acinetobacter baumannii; details: A. baumannii A329; +0.06 μg/ml PB; 2nd experiment
A. baumannii A473 [19] = experiment: as above; type: cell-based, Acinetobacter baumannii; details: A. baumannii A473; +0.06 μg/ml PB; 2nd experiment
A. baumannii A472 [20] = experiment: as above; type: cell-based, Acinetobacter baumannii; details: for MIC: Acinetobacter baumannii
A. baumannii A14 [21] = experiment: Preliminary MBC without and with sub-inhibitory polymyxin B (Example 4); type: cell-based, Acinetobacter baumannii; details: A. baumannii A14; +0.06 μg/ml polymyxin B; preliminary MBC; 1st experiment
[22] = ratio, PB 0.06 μg/ml, 1st experiment
[23] = A. baumannii A14, +0.06 μg/ml PB

SMILES: Cc1c(-c2cc(F)c(N)cc2F)ccn2c(=O)c(C(=O)O)cc(C3CC3)c12 [Compound 2, 8-(4-amino-2,5-difluorophenyl)-1-cyclopropyl-9-methyl-4-oxo-4H-quinolizine-3-carboxylic acid]
- MBC (A. baumannii A472 [1]; A472, A. baumannii A472, +[…] PB, 2nd experiment, read-out: MBC): ≤ 0.03 µg/mL
- MBC (A. baumannii A472 [1]; A472, read-out: MBC +[…] PB, A. baumannii A472, +[…] polymyxin B, 1st experiment): ≤ 0.03 µg/mL
- MIC without PB/MIC + PB (A. baumannii A387 [2]; +0.06 μg/ml PB, 2nd experiment): ≥32
- MIC without PB/MIC + PB (A. baumannii A387 [2]; [22]): ≥16
- MIC (A. baumannii A387 [2]; A387, A. baumannii A387, +0.06 μg/ml PB, 2nd experiment, read-out: MIC): ≤ 0.03 µg/mL
- MIC (A. baumannii A387 [2]; A387, read-out: MIC +0.06 μg/ml PB, A. baumannii A387, +0.06 μg/ml polymyxin B, 1st experiment): ≤ 0.03 µg/mL
- MIC without PB/MIC + PB (A. baumannii J2; +[…] PB, 2nd experiment): ≥128
- MIC without PB/MIC + PB (A. baumannii J2; ratio, PB […], 1st experiment): ≥128
- MIC (A. baumannii J2; J2, A. baumannii J2, +[…] PB, 2nd experiment, read-out: MIC): ≤ 0.03 µg/mL
- MIC (A. baumannii J2; J2, read-out: MIC +[…] PB, A. baumannii J2, +[…] polymyxin B, 1st experiment): ≤ 0.03 µg/mL
- MIC without PB/MIC + PB (A. baumannii A390 [3]; A. baumannii A390): ≥512
- MIC (A. baumannii A390 [3]; Acinetobacter baumannii, A390, A. baumannii A390, read-out: MIC): ≤ 0.03 µg/mL
- MBC (A. baumannii A401 [4]; A401, A baumannii A 401, +0.06 μg/ml PB, 2nd experiment, read-out: MBC): ≤ 0.03 µg/mL
- MBC (A. baumannii A401 [4]; A401, read-out: MBC +0.06 μg/ml PB, A baumannii A 401, +0.06 μg/ml polymyxin B, 1st experiment): ≤ 0.03 µg/mL
- MIC range with PB (0.25x MIC) Oct. 1, 2008 n = 8 ([5]; 1st experiment, […] polymyxin B, ATCC 19606, A329, A390 and A473 not taken): ≤0.03 to 1 µg/mL
- MIC range with PB (0.25x MIC) Oct. 14, 2008 n = 11 ([5]; 2nd experiment, 0.06 μg/ml polymyxin B, all strains except the ATCC strain): ≤0.03 to 0.5 µg/mL
- MIC without PB/MIC + PB (A. baumannii ATCC 19606; +0.06 μg/ml PB, 2nd experiment): ≥4
- MIC without PB/MIC + PB (A. baumannii ATCC 19606; [22]): ≥1
- MIC without PB/MIC + PB (A. baumannii NCTC 13301 [6]; A. baumannii NCTC 13301, ratio, PB […], 1st experiment): ≥512
- MIC (A. baumannii NCTC 13301 [6]; Acinetobacter baumannii, NCTC13301, read-out: MIC +[…] PB): ≤ 0.03 µg/mL
- MBC (A. baumannii A489; A489, A. baumannii A489, +[…] PB, 2nd experiment, read-out: MBC): ≤ 0.03 µg/mL
- MBC (A. baumannii A489; A489, read-out: MBC +[…] PB, A. baumannii A489, +[…] polymyxin B, 1st experiment): ≤ 0.03 µg/mL
- MIC without PB/MIC + PB (A. baumannii NCTC 13301 [7]; A. baumannii NCTC 13301): ≥512
- MIC (A. baumannii NCTC 13301 [7]; Acinetobacter baumannii, NCTC13301, A. baumannii NCTC 13301, read-out: MIC): ≤ 0.03 µg/mL
- MIC +0.06 μg/ml PB (A. baumannii A14 [8]; +0.06 μg/ml polymyxin B): ≤0.03 µg/mL
- MIC (A. baumannii A14 [8]; Acinetobacter baumannii, 24 h, without polymyxin B, read-out: MIC without PB): 16 µg/mL (≈ 43.2 µM)
- MIC without PB/MIC + PB (A. baumannii A14 [8]; ratio, PB 0.06 μg/ml): ≥512
- MBC (A. baumannii A329 [9]): 0.5 µg/mL (≈ 1.35 µM)
- MBC (A. baumannii A390 [10]): 0.06 µg/mL (≈ 0.162 µM)
- MBC (A. baumannii A473 [11]): 0.125 µg/mL (≈ 0.338 µM)
- MBC (A. baumannii NCTC 13301 [12]; NCTC13301, A. baumannii NCTC 13301, +[…] PB, preliminary MBC, 2nd experiment, read-out: MBC): ≤ 0.03 µg/mL
- MBC (A. baumannii NCTC 13301 [12]; NCTC13301, read-out: MBC +[…] PB): ≤ 0.03 µg/mL
- MBC (A. baumannii A14 [13]): 0.06 µg/mL (≈ 0.162 µM)
- MBC (A. baumannii A387 [14]; A387, A. baumannii A387, +0.06 μg/ml PB, 2nd experiment, read-out: MBC): ≤ 0.03 µg/mL
- MBC (A. baumannii A387 [14]; A387, read-out: MBC +0.06 μg/ml PB, A. baumannii A387, +0.06 μg/ml polymyxin B, 1st experiment): ≤ 0.03 µg/mL
- MIC (A. baumannii A14 [15]; [23]): 0.06 µg/mL (≈ 0.162 µM)
- MIC without PB/MIC + PB (A. baumannii A14 [15]; [23]): 256
- MIC (A. baumannii A14 [15]; Acinetobacter baumannii, A14, A. baumannii A14, without PB, read-out: MIC): 16 µg/mL (≈ 43.2 µM)
- MIC without PB/MIC + PB ([16]; Acinetobacter spp. H064200250 (OXA51), +[…] PB, 2nd experiment): ≥128
- MIC without PB/MIC + PB ([16]; Acinetobacter spp. H064200250, ratio, PB […], 1st experiment): ≥128
- MIC ([16]; Acinetobacter spp. H064200250 (OXA51), +[…] PB, 2nd experiment, read-out: MIC): ≤ 0.03 µg/mL
- MIC ([16]; read-out: MIC +[…] PB, Acinetobacter spp. H064200250, +[…] polymyxin B, 1st experiment): ≤ 0.03 µg/mL
- MIC without PB/MIC + PB (A. baumannii A401 [17]; A baumannii A 401, ratio, PB 0.06 μg/ml, 1st experiment): ≥128
- MIC (A. baumannii A401 [17]; A401, A baumannii A 401, +0.06 μg/ml PB, 2nd experiment, read-out: MIC): ≤ 0.03 µg/mL
- MIC (A. baumannii A401 [17]; A401, read-out: MIC +0.06 μg/ml PB, A baumannii A 401, +0.06 μg/ml polymyxin B, 1st experiment): ≤ 0.03 µg/mL
- MIC without PB/MIC + PB (A. baumannii A329 [18]): 16
- MIC without PB/MIC + PB (A. baumannii A473 [19]): 64
- MIC without PB/MIC + PB (A. baumannii A472 [20]; A. baumannii A472, ratio, PB […], 1st experiment): ≥128
- MIC (A. baumannii A472 [20]; A472, A. baumannii A472, +[…] PB, 2nd experiment, read-out: MIC): ≤ 0.03 µg/mL
- MIC (A. baumannii A472 [20]; A472, read-out: MIC +[…] PB, A. baumannii A472, +[…] polymyxin B, 1st experiment): ≤ 0.03 µg/mL
- MBC +0.06 μg/ml PB (A. baumannii A14 [21]): ≤0.03 µg/mL
